Assay results published in PubChem BioAssay AID1061 (NMMLSC, 2008).
Activity calls are given as the source filed them. The rule behind the calls is not given here.

Molecular target: N-formyl peptide receptor 2 (Homo sapiens) (UniProt P25090)
Test: FPRL1 antagonists blocking calcium signal, SAR follow-up, cell-based, calcium response, secondary assay (AID 1061)
Details: FPRL1-expressing cells, antagonist mode, at 100 µM, stronger effect = higher value

Chain of N-formyl peptide receptor 2 (Homo sapiens) (P25090 whole entry, looked up): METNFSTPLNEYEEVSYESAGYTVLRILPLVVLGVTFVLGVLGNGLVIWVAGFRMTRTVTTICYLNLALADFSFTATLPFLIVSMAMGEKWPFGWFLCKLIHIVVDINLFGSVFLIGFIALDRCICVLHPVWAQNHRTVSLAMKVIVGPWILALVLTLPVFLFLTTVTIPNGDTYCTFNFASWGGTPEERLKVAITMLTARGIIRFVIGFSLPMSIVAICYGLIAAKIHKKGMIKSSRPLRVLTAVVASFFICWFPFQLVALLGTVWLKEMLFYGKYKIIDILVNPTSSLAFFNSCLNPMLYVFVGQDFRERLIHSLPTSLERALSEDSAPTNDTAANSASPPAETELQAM

| SMILES | inhibition |
| --- | --- |
| COc1ccc(-c2cn3cccnc3n2)cc1NC(=O)C(C)C | 93% |
| COc1ccc(-c2cc(C(F)(F)F)nc(N3CCN(Cc4ccccc4)CC3)n2)cc1OC | 48% (inactive) |
| CCC(=O)Nc1cc(-c2cn3cccnc3n2)ccc1OC | 36% (inactive) |
| COc1ccc(-c2cn3cccnc3n2)cc1NC(=O)C1CC1 | 79% |
| COc1ccc(CC(=O)Nc2cc(-c3cn4cccnc4n3)ccc2OC)cc1 | 75% |
